From PMC10111423, “Antimalarial Imidazopyridines Incorporating an Intramolecular Hydrogen Bonding Motif: Medicinal Chemistry and Mechanistic Studies” (ACS Infectious Diseases, 2023) come the findings set out here.

The nature of series [1]: In vitro cytotoxicity MTT assay. Type of series: cell-based, Chinese hamster. The settings on record: Chinese hamster, Chinese hamster ovarian (CHO) cells; MTT assay. On the procedure:
(§1) In vitro cytotoxicity was performed on the Chinese Hamster Ovarian cell line by measuring cellular growth and survival calorimetrically through the MTT assay.[29],[30] The formation of tetrazolium salt was used as a measure of chemosensitivity and growth. (Details of this assay is described in the Supporting Information.) page 19: et al, 1993). The test samples were prepared to a 10 mmol/L stock solution in 100% DMSO. Samples were tested as a suspension if not completely dissolved. Further dilutions to the desired starting concentration were freshly prepared in growth media on each occasion of the experiment. The standard antimalarial drugs chloroquine (CQ) and artesunate (Arts) were used as the reference drug in all experiments. A full dose-response was performed for all compounds […] value). Test samples were tested at a starting concentration of 6mmol/L, which was then serially diluted 2-fold in growth medium to generate the tested concentration range. The same dilution technique was used for all samples. CQ and Arts were tested from a starting concentration of 1μg/mL. The highest concentration of solvent to which the parasites were exposed was <0.1% and has no measurable effect on the parasite viability (data not shown). The assay plate was incubated at 37 °C for 72h in a sealed gas chamber under 3% O2 and 4% CO2 with the balance being N2. After 72h, the wells in the assay plate were gently resuspended, and 15μL from each well was transferred to a duplicate plate containing 100μL of Malstat reagent and 25μL of nitroblue tetrazolium solution in each well. Plates were left to develop for 20 minutes in the dark and then absorbance of each well was quantified using a spectrophotometer at 620nm wavelength. The remaining population of parasites at each concentration of the test compound was determined by comparing the absorbance of each well to the absorbance of a well containing the drug-free control. Survival was plotted against concentration and the IC50 values were obtained using a non-linear dose-response curve fitting analysis via the Dotmatics software platform.2 In vitro Cytotoxicity Assay In vitro cytotoxicity was performed on the Chinese Hamster Ovarian cell line by measuring […] diphenyltetrazolium bromide (MTT) assay.3,4 The formation of tetrazolium salt was used as a measure of chemosensitivity and growth. 2 mg/mL stock solutions of the test compounds were prepared in DMSO and stored at -20 °C until required. The stock solution was subsequently diluted with the assay medium to make up an initial concentration of 100 μg/mL. The initial 100 μg/mL solution is serially diluted 10- S19 page 20: fold to attain six assay concentrations of 100-0.001 μg/mL. […] was used as the reference compound in this assay. The highest concentration of DMSO, which was used as the negative control, had no measurable effect on cell viability. After 44 hours of exposure of the cells to the test compounds, a solution of MTT was added. This was followed by an additional 4 hours of incubation at 37 °C. The assay plates were centrifuged, medium removed, and DMSO was added to the crystals. The amount of formazan was ascertained by measuring the absorbance at 540 nm. GraphPad Prism software was then used to generate IC50 values through a non-linear dose-response curve analysis. β-Hematin Inhibition Assay 20 mM stock solutions of controls and test compounds were made in DMSO. A solution […] was added to every well in columns 1-11 of a 96-well plate. 140 μL of water and 40 μL of 305.5 μM NP-40 were added to column 12 to mediate the formation of beta-hematin. 20 μL of test compounds (20 mM) were added to column 12 and 100 μL of this solution serially diluted to column 2, leaving column 1 blank (0 μM of test compound). 178.8 μL aliquot of hematin stock was suspended in 20 ml of a 1 M acetate buffer at pH 4.9. 100 μL of this hematin suspension was then added into each well, and the plates were incubated for ±5 hrs at 37°C. […]

Series [2] relates to Chinese hamster ovarian (CHO) cell line. As to the kind of experiment: In vitro cytotoxicity MTT assay. Type of series: cell-based. Conditions: CHO vs PfNF54. As to the method:
as §1

In series [3] the test system is multidrug-resistant (K1) strain of P. falciparum. As to the kind of experiment: In vitro asexual blood-stage antiplasmodium pLDH assay, K1 strain. The format is cell-based. Conditions: Plasmodium falciparum, 72 h, n ≥ 3, read-out: In vitro antiplasmodium activity IC50 PfK1 strain. As to the method: Compounds were screened against multi-drug-resistant (K1) and sensitive (NF54) strains of P. falciparum in vitro using a parasite lactate dehydrogenase assay (pLDH) (the method is described fully in the Supporting Information). […]
In vitro Asexual Blood Stage Antiplasmodium Assay
Parasites were cultured as per the method of Trager and Jensen,1 with modifications. IC50 values were determined using parasite lactate dehydrogenase as a marker for survival (Makler […]
et al, 1993). The test samples were prepared to a 10 mmol/L stock solution in 100% DMSO.
Samples were tested as a suspension if not completely dissolved. Further dilutions to the desired starting concentration were freshly prepared in growth media on each occasion of the experiment. The standard antimalarial drugs chloroquine (CQ) and artesunate (Arts) were used as the reference drug in all experiments. A full dose-response was performed for all compounds in a 96-well plate to determine the concentration inhibiting 50% of parasite growth (IC50– value). Test samples were tested at a starting concentration of 6mmol/L, which was then serially diluted 2-fold in growth medium to generate the tested concentration range. The same dilution technique was used for all samples. CQ and Arts were tested from a starting concentration of 1µg/mL. The highest concentration of solvent to which the parasites were exposed was <0.1% and has no measurable effect on the parasite viability (data not shown).
The assay plate was incubated at 37 °C for 72h in a sealed gas chamber under 3% O2 and 4% CO2 with the balance being N2. After 72h, the wells in the assay plate were gently resuspended, and 15µL from each well was transferred to a duplicate plate containing 100µL of Malstat reagent and 25µL of nitroblue tetrazolium solution in each well. Plates were left to develop for 20 minutes in the dark and then absorbance of each well was quantified using a spectrophotometer at 620nm wavelength.
The remaining population of parasites at each concentration of the test compound was determined by comparing the absorbance of each well to the absorbance of a well containing […]
the drug-free control. […]
The initial 100 µg/mL solution is serially diluted 10-

For `CCN(CCNc1cc2[nH]c(C3CCCC3)nc2cn1)Cc1ccc(Cl)cc1O` [Compound 1, 5-Chloro-2-(((2-((2-cyclopentyl-1H-imidazo[4,5-c]pyridin-6-yl)amino)ethyl)(ethyl)amino)methyl)phenol], it took 27.1 µM to reach half-maximal inhibition in series [1] (IC50 at 44 h). The “SI (selectivity index) = IC50 CHO/IC50 PfNF54” value in series [2] was 79.76. Further, the concentration for half-maximal inhibition (IC50) in series [3] stood at 1350 nM.
Turning to `CCN(CCNc1cc2[nH]c(C3CC3)nc2cn1)Cc1ccc(Cl)cc1O` [Compound 5, 5-Chloro-2-(((2-((2-cyclopropyl-1H-imidazo[4,5-c]pyridin-6-yl)amino)ethyl)(ethyl)amino)methyl)phenol], half-maximal inhibition in series [1] (IC50 at 44 h) was put at 46.4 µM. Moreover, the “SI (selectivity index) = IC50 CHO/IC50 PfNF54” value in series [2] is 119.08. The IC50 in series [3] came to 480 nM.
The matching figures for `CCN(CCNc1cc2[nH]c(C3(C)CC3)nc2cn1)Cc1ccc(Cl)cc1O` [Compound 6, 5-Chloro-2-((ethyl(2-((2-(1-methylcyclopropyl)-1H-imidazo[4,5-c]pyridin-6-yl)amino)ethyl)amino)methyl)phenol]: more than 50 µM, more than 102.04 and 6000 nM.
The matching figures for `CCN(CCNc1cc2[nH]c(-c3cccc(C(F)(F)F)c3)nc2cn1)Cc1ccc(Cl)cc1O` [Compound 14, 5-Chloro-2-((ethyl(2-((2-(3-(trifluoromethyl)phenyl)-1H-imidazo[4,5-c]pyridin-6-yl)amino)ethyl)amino)methyl)phenol]: 37.3 µM, 466.25 and 100 nM.
The compound `CCN(CCNc1cc2[nH]c(-c3ccc(C(F)(F)F)nc3)nc2cn1)Cc1ccc(Cl)cc1O` [Compound 19, 5-Chloro-2-((ethyl(2-((2-(6-(trifluoromethyl)pyridin-3-yl)-1H-imidazo[4,5-c]pyridin-6-yl)amino)ethyl)amino)methyl)phenol] displayed an IC50 at 44 h in series [1] of more than 50 µM. Moreover, in series [2], the “SI (selectivity index) = IC50 CHO/IC50 PfNF54” value is more than 131.58. For the same compound, in series [3], the concentration for half-maximal inhibition (IC50) was determined as 360 nM.
